Legend:
glucan synthase [1] = biological target: T1, glucan synthase (Candida albicans, UniProt O13428); test: β(1,3) glucan synthase assay, C. albicans BWP17 membrane preparation (IC50); assay type: biochemical; conditions: in vitro fungal enzyme activity assay, read-out: IC50 (μg/mL) Candida albicans (converted)
T1 construct: glucan synthase sources (2 μL permeabilized PM503 cells, or 3 μL membrane preparations from either PM503, BWP17, or ND158); endogenous in cells; host or cells: C. albicans strain BWP17, 100,000 g membrane fraction
T1 sequence (O13428 1-1897): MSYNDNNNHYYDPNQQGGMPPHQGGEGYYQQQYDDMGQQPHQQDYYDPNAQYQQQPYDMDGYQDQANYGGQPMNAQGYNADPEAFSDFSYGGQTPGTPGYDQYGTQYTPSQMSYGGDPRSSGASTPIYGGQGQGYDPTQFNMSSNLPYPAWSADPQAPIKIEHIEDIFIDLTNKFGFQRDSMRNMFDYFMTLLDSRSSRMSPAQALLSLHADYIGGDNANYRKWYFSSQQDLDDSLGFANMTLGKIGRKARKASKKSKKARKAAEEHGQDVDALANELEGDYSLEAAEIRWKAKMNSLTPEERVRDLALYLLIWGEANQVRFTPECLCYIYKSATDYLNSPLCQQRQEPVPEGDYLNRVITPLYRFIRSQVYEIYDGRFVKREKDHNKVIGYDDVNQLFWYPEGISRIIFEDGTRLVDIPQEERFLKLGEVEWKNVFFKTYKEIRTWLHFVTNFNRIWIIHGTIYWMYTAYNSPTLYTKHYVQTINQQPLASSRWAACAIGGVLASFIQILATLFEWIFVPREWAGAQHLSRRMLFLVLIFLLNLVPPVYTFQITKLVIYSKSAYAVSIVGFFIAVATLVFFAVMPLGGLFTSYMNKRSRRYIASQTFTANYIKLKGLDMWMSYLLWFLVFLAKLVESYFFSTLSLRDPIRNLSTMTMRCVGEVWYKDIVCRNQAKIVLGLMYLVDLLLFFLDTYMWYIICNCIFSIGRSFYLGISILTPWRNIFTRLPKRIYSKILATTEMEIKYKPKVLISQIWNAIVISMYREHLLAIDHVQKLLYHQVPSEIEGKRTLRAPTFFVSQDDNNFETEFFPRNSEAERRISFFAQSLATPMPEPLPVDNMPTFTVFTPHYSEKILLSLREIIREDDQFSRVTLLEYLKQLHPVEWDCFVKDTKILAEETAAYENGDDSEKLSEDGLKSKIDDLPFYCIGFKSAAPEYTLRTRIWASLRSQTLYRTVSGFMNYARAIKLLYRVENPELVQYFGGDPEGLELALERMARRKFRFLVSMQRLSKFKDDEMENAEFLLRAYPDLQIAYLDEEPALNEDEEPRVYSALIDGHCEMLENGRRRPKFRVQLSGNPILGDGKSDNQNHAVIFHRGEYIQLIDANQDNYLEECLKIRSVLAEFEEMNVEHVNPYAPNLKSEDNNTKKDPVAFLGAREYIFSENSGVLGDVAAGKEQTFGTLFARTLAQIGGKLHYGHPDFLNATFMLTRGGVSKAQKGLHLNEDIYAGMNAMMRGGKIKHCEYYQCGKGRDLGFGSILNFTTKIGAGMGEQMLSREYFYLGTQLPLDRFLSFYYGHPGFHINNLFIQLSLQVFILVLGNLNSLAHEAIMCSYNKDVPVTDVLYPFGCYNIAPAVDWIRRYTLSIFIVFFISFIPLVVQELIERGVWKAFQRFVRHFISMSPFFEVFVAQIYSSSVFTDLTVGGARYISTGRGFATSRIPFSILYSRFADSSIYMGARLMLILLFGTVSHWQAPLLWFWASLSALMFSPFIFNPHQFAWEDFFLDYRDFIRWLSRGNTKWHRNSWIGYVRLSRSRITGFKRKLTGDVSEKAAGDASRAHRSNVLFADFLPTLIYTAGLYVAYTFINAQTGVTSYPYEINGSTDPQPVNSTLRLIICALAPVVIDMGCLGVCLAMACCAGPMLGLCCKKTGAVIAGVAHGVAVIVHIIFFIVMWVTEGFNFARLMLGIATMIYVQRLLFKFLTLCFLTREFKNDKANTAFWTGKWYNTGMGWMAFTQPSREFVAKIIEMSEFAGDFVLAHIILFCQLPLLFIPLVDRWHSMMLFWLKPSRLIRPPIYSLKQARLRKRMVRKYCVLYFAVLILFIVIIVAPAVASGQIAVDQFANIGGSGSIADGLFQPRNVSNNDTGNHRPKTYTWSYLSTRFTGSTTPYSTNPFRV
T1 sequence (O42825 1-195 partner limits assumed): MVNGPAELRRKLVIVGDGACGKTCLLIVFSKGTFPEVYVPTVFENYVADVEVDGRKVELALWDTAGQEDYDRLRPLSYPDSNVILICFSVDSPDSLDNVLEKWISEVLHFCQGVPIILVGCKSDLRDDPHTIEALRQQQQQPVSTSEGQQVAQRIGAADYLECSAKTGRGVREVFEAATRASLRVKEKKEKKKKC
Method: (§1) β(1,3) Glucan Synthase Assay:
(§2) 2. Preparation of Membrane Fraction of Yeast Cells
(§3) The protocol was modified from Douglas et al. (Journal of Bacteriology, 176, 5686-5696, 1994). For the preparation of S. cerevisiae and C. albicans membrane fractions, 1 liter of YPD supplemented with 0.02 mg/mL adenine and 0.08 mg/mL uracil was inoculated with 10 mL starter culture of PM503 (OD600=4) or the C. albicans strain BWP17 (OD600=12) in the same medium and grown at 30° C. until OD600 reached about 1. A. fumigatus (stain ND158) membranes were prepared by first preparing a spore suspension from agar slants by adding 6 mL of sterile saline, 0.1% Tween-20 solution to each slant, and resuspending by pipetting and scraping. The spore suspensions were used to inoculate two 200 mL flasks containing Sabouraud dextrose broth media. Cultures were incubated at 37° C., 250 rpm for ˜8 hrs. All cells, S. cerevisiae, C. albicans or A. fumigatus were harvested by centrifugation at 5,300 g at 4° C. for 40 minutes. After washing with 100 mL of breakage buffer (0.1 M KPi, pH 7.0, 1 mM EDTA, 1 mM DTT), the cell pellet was resuspended in 50 ml ice-cold breakage buffer. The mixture was transferred to a bead-beater chamber packed in ice (BioSpec Products, Bartlesville, Okla.). To each 50 mL sample was added 50 g of acid-washed glass beads ([…], Sigma). Cells were disrupted using 12×20 second pulses with 2 min-cooling intervals. Cell debris was removed by centrifugation at 3,000 g for 20 minutes at 4° C., and the supernatant was collected and centrifuged at 100,000 g for 1 hour at 4° C. to pellet the membrane fraction. The pellet was resuspended in 5 mL of ice-cold breakage buffer containing 25% glycerol, homogenized with a Dounce tissue homogenizer and stored at −80° C. in small aliquots.
(§4) 3. Glucan Synthase Assay and Compound Screening
The assay was performed according to Mo et at (Journal of Biological Chemistry, 269, 31267-31274, 1994) and Taft et al. (The Journal of Antibiotics, 47, 1001-1009, 1994), in a 96-well Optiplate (PerkinElmer). To each well was added 3 μL 10× compound stock (in 100% DMSO), or 3 μL of 30 μg/mL caspofungin in 100% DMSO (as positive control), or 3 μL 100% DMSO (as negative control), followed by the addition of appropriate amount of glucan synthase sources (2 μL permeabilized PM503 cells, or 3 μL membrane preparations from either PM503, BWP17, or ND158). The reaction was initiated by adding 25 μL reaction buffer (0.6 mM UDP-Glucose 0.6 nCi [U-^14C]DUP-Glucose (327 mCi/mmol, Amersham Bioscience), 20 μM GTP-γ-S, 25 mM NaF, 7.5 mg/mL BSA, 8% glycerol in 75 mM Tris-HCl, pH 7.5). The plate was incubated on a shaker for 1.5 hour at room temperature before being quenched with 250 μL 1% TCA (Trichloroacetic Acid). The quenched reaction was mixed by pipetting, and immediately transferred to a 96-well filter plate (Glass fiber B on 0.65 μm hydrophilic durapore membrane, Millipore) pre-wetted with wash buffer (5% TCA, 60 mM NaPPi). The glucan product was retained on the filter membrane by applying vacuum to the plate using a MultiScreen Resist Vacuum Manifold (Millipore). The filter plate was further washed 4 times with 200 μL wash buffer. The plate was dried at 50° C. for 30 minutes. 100 μL of Microscint-0 (PerkinElmer) was added to each well, and plate was counted in a TopCount NXT plate reader (PerkinElmer).
Dose-response curves were plotted from inhibition data generated. IC50 was determined by fitting the CPM versus the Concentration of the test compound plot with the following equation (4-parameter logistic model, ID Business Solutions XLfit 4.2).

glucan synthase [2] = biological target: T2, glucan synthase (Saccharomyces cerevisiae, UniProt P38631); test: β(1,3) glucan synthase assay, S. cerevisiae PM503 permeabilized cells or membrane preparation (IC50); assay type: biochemical
T2 construct: glucan synthase sources (2 μL permeabilized PM503 cells, or 3 μL membrane preparations from either PM503, BWP17, or ND158); endogenous in cells; host or cells: S. cerevisiae strain PM503, permeabilized cells or 100,000 g membrane fraction
T2 sequence (P06780 1-206): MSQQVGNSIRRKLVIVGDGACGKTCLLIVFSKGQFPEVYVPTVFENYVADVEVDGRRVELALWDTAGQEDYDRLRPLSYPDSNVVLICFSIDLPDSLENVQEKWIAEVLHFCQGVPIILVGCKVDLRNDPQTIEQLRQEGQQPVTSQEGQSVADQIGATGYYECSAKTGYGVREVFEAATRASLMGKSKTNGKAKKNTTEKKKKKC
T2 sequence (P38631 whole entry): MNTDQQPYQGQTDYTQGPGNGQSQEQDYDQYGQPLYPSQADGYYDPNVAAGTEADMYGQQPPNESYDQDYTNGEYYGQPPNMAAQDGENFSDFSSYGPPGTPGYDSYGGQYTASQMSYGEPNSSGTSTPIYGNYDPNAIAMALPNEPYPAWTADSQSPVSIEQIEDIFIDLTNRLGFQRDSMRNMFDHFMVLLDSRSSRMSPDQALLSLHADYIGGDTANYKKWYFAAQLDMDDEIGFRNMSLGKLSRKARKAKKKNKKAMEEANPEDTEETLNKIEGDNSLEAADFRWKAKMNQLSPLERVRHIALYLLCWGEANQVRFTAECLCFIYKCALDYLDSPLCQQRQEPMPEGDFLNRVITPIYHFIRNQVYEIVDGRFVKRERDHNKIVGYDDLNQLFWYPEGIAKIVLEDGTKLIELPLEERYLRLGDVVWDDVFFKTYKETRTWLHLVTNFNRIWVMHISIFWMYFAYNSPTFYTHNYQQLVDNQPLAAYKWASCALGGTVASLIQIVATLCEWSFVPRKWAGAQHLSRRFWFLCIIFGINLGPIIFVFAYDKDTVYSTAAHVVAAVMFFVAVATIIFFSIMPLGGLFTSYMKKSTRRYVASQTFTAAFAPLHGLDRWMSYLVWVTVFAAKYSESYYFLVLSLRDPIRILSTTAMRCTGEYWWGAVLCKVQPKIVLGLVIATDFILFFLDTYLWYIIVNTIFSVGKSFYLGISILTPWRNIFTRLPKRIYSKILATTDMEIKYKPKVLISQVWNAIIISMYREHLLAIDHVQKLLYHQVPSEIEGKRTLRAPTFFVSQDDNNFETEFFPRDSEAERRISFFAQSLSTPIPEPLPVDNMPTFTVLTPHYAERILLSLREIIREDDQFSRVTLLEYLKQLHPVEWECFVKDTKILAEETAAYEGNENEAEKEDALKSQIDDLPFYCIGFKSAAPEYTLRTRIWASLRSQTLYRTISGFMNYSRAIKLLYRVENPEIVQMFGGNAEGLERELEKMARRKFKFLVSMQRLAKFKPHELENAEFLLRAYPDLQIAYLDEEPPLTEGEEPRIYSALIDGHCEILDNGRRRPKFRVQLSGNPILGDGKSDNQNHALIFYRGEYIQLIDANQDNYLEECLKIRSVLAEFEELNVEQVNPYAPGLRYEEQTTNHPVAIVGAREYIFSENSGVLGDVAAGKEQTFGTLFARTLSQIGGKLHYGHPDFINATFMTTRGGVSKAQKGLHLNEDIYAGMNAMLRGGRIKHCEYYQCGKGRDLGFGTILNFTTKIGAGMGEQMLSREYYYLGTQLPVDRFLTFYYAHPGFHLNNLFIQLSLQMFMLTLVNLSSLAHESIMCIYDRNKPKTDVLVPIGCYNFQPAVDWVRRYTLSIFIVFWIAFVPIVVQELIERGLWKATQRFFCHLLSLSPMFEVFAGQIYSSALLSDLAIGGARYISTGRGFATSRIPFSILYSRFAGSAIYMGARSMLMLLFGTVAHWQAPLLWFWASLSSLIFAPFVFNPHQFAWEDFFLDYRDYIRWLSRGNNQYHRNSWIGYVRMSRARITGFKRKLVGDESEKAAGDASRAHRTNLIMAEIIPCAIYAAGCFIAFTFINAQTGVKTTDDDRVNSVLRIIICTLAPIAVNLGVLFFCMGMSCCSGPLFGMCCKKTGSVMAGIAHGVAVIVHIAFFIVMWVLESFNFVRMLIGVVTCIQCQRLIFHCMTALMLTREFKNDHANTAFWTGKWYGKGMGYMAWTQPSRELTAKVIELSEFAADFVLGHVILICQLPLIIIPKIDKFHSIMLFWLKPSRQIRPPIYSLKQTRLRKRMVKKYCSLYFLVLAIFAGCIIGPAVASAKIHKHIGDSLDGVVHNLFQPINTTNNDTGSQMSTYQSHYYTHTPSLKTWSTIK
Method: as §1
1. Preparation of Permeabilized Saccharomyces cerevisiae Cells.
Permeabilization of yeast cells was performed according to Crotti et al. (Analytical Biochemistry, 292, 8-16, 2001) with some modifications. A 10 ml-starter culture of the S. cerevisiae strain in YPD medium (1% yeast extract, 2% bacto-peptone, 2% dextrose) with OD600=3-4 was used to inoculate 1 liter of YPD. The culture was grown at 30° C. until […]. Cells were collected by centrifugation (5,300 g for 15 min at 4° C.) and resuspended in buffer (40 mM EDTA, 100 mM β-mercaptoethanol) at 1 g of cell pellet/3.5 ml buffer. The cell suspension was shaken for 30 min at 30° C., followed by centrifugation at 12,000 g for 10 min at 4° C. The cell pellet was washed with 5 ml 0.8 M sorbitol and resuspended in 6.8 ml of 2.9 mM citric acid, 11.3 mM dibasic sodium phosphate, 1 mM EDTA, 0.8 M sorbitol, with constant shaking at 30)C for 30 min. After centrifugation at 12,000 g for […] at 4° C., the pellet was resuspended in 31.3 ml 50 mM Tris-HCl, pH 7.0, and incubated on ice for 5 min. The mixture was then centrifuged at 12,000 g for 10 min at 4 AC, and the pellet was resuspended in 1 ml of 50 mM Tris-HCl and 33% glycerol, pH 7.5. The permeabilized cell preparation was stored at […] in aliquots.
as §2, §3, §4
The assay was performed according to Mo et at (Journal of Biological Chemistry, 269, 31267-31274, 1994) and Taft et al. (The Journal of Antibiotics, 47, 1001-1009, 1994), in a 96-well Optiplate (PerkinElmer). To each well was added 3 μL 10× compound stock (in 100% DMSO), or 3 μL of 30 μg/mL caspofungin in 100% DMSO (as positive control), or 3 μL 100% DMSO (as negative control), followed by the addition of appropriate amount of glucan synthase sources (2 μL permeabilized PM503 cells, or 3 μL membrane preparations from either PM503, BWP17, or ND158). The reaction was initiated by adding 25 μL reaction buffer (0.6 mM UDP-Glucose 0.6 nCi [U-^14C]DUP-Glucose (327 mCi/mmol, Amersham Bioscience), 20 μM GTP-γ-S, 25 mM NaF, 7.5 mg/mL BSA, 8% glycerol in 75 mM Tris-HCl, pH 7.5). […]

Structure (SMILES): CC1(COc2c(N3CCN(S(=O)(=O)NCc4ccc(N)c(F)c4)CC3)cnn(-c3cccc(Cl)c3)c2=O)CC1 [1712Z]
- IC50 (glucan synthase [1]): 104 nM
- IC50 (glucan synthase [2]): 139 nM

Structure (SMILES): Cc1ccc(CNS(=O)(=O)N2CCN(c3cnn(-c4cc(F)cc(F)c4)c(=O)c3OC3CCC(F)C3)CC2)cc1N (stereo not drawn) [1715Z]
- IC50 (glucan synthase [1]): 523 nM
- IC50 (glucan synthase [2]): 169 nM

Structure (SMILES): CC1(COc2c(N3CCN(S(=O)(=O)NCc4ccc(F)cc4)CC3)cnn(-c3cc(F)cc(F)c3)c2=O)CC1 [1734Z]
- IC50 (glucan synthase [1]): 231 nM
- IC50 (glucan synthase [2]): 106 nM

Structure (SMILES): O=c1c(OCC2(CF)CC2)c(N2CCN(S(=O)(=O)NCc3ccc4ncoc4c3)CC2)cnn1-c1cccc(Cl)c1 [1743Z]
- IC50 (glucan synthase [1]): 99.5 nM
- IC50 (glucan synthase [2]): 116 nM

Structure (SMILES): CC1CCC(Oc2c(N3CCN(S(=O)(=O)CCCF)CC3)cnn(-c3cccc(Cl)c3)c2=O)C1 (stereo not drawn) [1761Z]
- IC50 (glucan synthase [1]): 312 nM
- IC50 (glucan synthase [2]): 136 nM

Structure (SMILES): COc1ccc(CS(=O)(=O)N2CCN(c3cnn(-c4cc(F)cc(F)c4)c(=O)c3OCC3(C)CC3)CC2)cc1N [1864Z]
- IC50 (glucan synthase [1]): 86.9 nM
- IC50 (glucan synthase [2]): 104 nM

Structure (SMILES): Cc1cc(CS(=O)(=O)N2CCN(c3cnn(-c4cccc(Cl)c4)c(=O)c3OCC3(C)CC3)CC2)ccc1N [1869Z]
- IC50 (glucan synthase [1]): 143 nM
- IC50 (glucan synthase [2]): 53.8 nM

Structure (SMILES): Cc1cc(CS(=O)(=O)N2CCN(c3cnn(-c4cc(F)cc(F)c4)c(=O)c3OCC3(C)CC3)CC2)ccc1N [1870Z]
- IC50 (glucan synthase [1]): 125 nM
- IC50 (glucan synthase [2]): 53.6 nM

Structure (SMILES): CC1(COc2c(N3CCN(S(=O)(=O)Cc4ccc5ncoc5c4)CC3)cnn(-c3cc(F)cc(F)c3)c2=O)CC1 [1891Z]
- IC50 (glucan synthase [1]): 122 nM
- IC50 (glucan synthase [2]): 87.5 nM

Structure (SMILES): Cc1nc2ccc(CS(=O)(=O)N3CCN(c4cnn(-c5cc(F)cc(F)c5)c(=O)c4OCC4(C)CC4)CC3)cc2o1 [1898Z]
- IC50 (glucan synthase [1]): 102 nM
- IC50 (glucan synthase [2]): 85.4 nM

Structure (SMILES): CC1(COc2c(N3CCN(S(=O)(=O)Cc4cc(N)ccc4F)CC3)cnn(-c3cccc(Cl)c3)c2=O)CC1 [1904Z]
- IC50 (glucan synthase [1]): 142 nM
- IC50 (glucan synthase [2]): 107 nM

Structure (SMILES): COCCNc1cccc(CS(=O)(=O)N2CCN(c3cnn(-c4cccc(Cl)c4)c(=O)c3OCC3(C)CC3)CC2)c1 [1951Z]
- IC50 (glucan synthase [1]): 83 nM
- IC50 (glucan synthase [2]): 99.6 nM

Structure (SMILES): CNc1cccc(CS(=O)(=O)N2CCN(c3cnn(-c4cccc(Cl)c4)c(=O)c3OCC3(C)CC3)CC2)c1 [1969Z]
- IC50 (glucan synthase [1]): 215 nM
- IC50 (glucan synthase [2]): 215 nM

Structure (SMILES): O=c1c2c(cnn1-c1cc(F)cc(F)c1)N1CCN(CC1)S(=O)(=O)/C=C/CCCCCCCCO2 [2022Z]
- IC50 (glucan synthase [1]): 157 nM
- IC50 (glucan synthase [2]): 78.6 nM

Structure (SMILES): COc1cccc(CS(=O)(=O)N2CCN(c3cnn(-c4cccc(Cl)c4)c(=O)c3OCC3(C)CC3)CC2)c1N [Compound 1574ZI]
- IC50 (glucan synthase [1]): 87.1 nM
- IC50 (glucan synthase [2]): 87.1 nM

Structure (SMILES): CC1(COc2c(N3CCN(S(=O)(=O)Cc4ccc(N)c(Cl)c4)CC3)cnn(-c3cc(F)cc(F)c3)c2=O)CC1 [Compound 1574Zo]
- IC50 (glucan synthase [1]): 69 nM
- IC50 (glucan synthase [2]): 51.7 nM

Structure (SMILES): CC1(COc2c(N3CCN(S(=O)(=O)Cc4cccc(Cl)c4N)CC3)cnn(-c3cc(F)cc(F)c3)c2=O)CC1 [Compound 1574Zq]
- IC50 (glucan synthase [1]): 138 nM
- IC50 (glucan synthase [2]): 69 nM

Structure (SMILES): CC1(COc2c(N3CCN(S(=O)(=O)Cc4cccnc4N)CC3)cnn(-c3cccc(Cl)c3)c2=O)CC1 [Compound 1574Zr]
- IC50 (glucan synthase [1]): 239 nM
- IC50 (glucan synthase [2]): 110 nM

Reference: patent publication US8232274B2, “Pyridazinone derivatives useful as glucan synthase inhibitors” (Albany Molecular Research, Inc., priority 2007, dated 2012)
